Assay results reported in US11591342B2, “Heterocyclic compound, application thereof and pharmaceutical composition comprising same” (SUZHOU SINOVENT PHARMACEUTICALS CO., LTD., priority 2018, dated 2023).

How the values were obtained:
CYP3A4 = CYP3A4 (Homo sapiens (Human), UniProt P08684); assay: Time-dependent inhibition of CYP3A4 (TDI assay, human liver microsomes); assay type: in vitro ADME; conditions: for CYP3A4 TDI % @ 10 μM: human liver microsomes, Midazolam substrate, 30 min with NADPH vs 0 min; for time-dependent inhibition on CYP3A4 (conclusion): conclusion drawn from Table 3, 10 μM
Procedure: Effect Example 3. Time-Dependent Inhibition of CYP3A4
1. Preheating potassium phosphate buffer (K-buffer), pH 7.4: 100 mM potassium phosphate buffer (K-buffer) was prepared by mixing 9.5 mL of solution A with 40.5 mL of solution B, diluting to 500 mL with ultrapure water, and then adjusting to pH 7.4 with KOH or H3PO4, wherein the solution A (1M potassium dihydrogenphosphate) was prepared by dissolving 136.5 g of potassium dihydrogenphosphate in […] of ultrapure water.
2. Preparation of human liver microsome suspension (1.3 mg/mL, 1.3×, stock: 20 mg/mL): 100 μL of human liver microsome suspension (20 mg/mL) was added into […] of K-buffer.
3. Preparation of NADPH solution (4.167 mg/mL, 5 mM): 8.3 mg of NADPH was added into 2 mL of buffer.
4. Preparation of substrate solution (1.5× final): 1.5 μL of 10 mM Midazolam was added to 998.5 μL of K-buffer to yield the substrate mixture.
5. Preparation of 100× test compound, reference and blank control solutions: 3 μL of 10 mM stock solution of test compound was added to 27 μL of ACN; 3 μL of positive control stock solution was added to 27 μL of ACN; and 3 μL of DMSO was added to 27 μL of ACN to serve as blank control.
6. Primary preheating system: An NADPH-free system for 0 min incubation: 78 μL of 1.3× human liver microsome solution (step 2) was mixed with 1 μL of the 100× stock solutions of positive control, test compound, or blank control (step 5); A system containing NADPH for 30 min incubation: 78 μL of 1.3× human liver microsome solution (step 2) was mixed with 1 μL of the 100× stock solutions of positive control, test compound, or blank control (step 5).
7. Secondary preheating system: 150 μL of the substrate solution prepared in step 4 was added into a deep well plate together with the NADPH solution from step 3
8. The samples were preheated for 10 min in a 37° C. water bath.
9. Reaction procedure: (1) reaction for 0 min: 21 μL of K-buffer was added to the primary preheating system and mixed well without incubation; 20 μL of the mixture was immediately transferred into the plate of the secondary preheating system; after mixing, the secondary system was incubated in a 37° C. water bath for 15 min, and 60 μL of the reaction mixture was added into 120 μL of acetonitrile containing internal standard to terminate the reaction; and (2) reaction for 30 min: 21 μL of NADPH was added into the primary preheating system for a 30-min incubation after mixing; 20 μL of the mixture was added into the secondary preheating system prior to mixing; the mixture was incubated in a 37° C. water bath for 15 min, and 60 μL of the reaction mixture was added into 120 μL of acetonitrile containing internal standard to terminate the reaction.
10. After termination, the samples were shaken on a shaker at 600 rpm for 10 min and centrifuged at 5594 g for 15 min prior to LC-MS/MS analysis.

Autotaxin (ATX) = Autotaxin (ATX) (Homo sapiens (Human), UniProt Q13822); assay: ATX bioactivity assay (Amplex Red / choline oxidase / HRP fluorescence, LPC 16:0 substrate); assay type: biochemical; conditions: 30 min room temperature
Procedure: Effect Example 1 Bioactivity Assay
Preparation and Treatment
Stock Solution Preparation
A 10 mM DMSO stock solution was formulated for each compound. A 30 mM DMSO stock solution was formulated for positive control HA130.
The DMSO stock solutions were stored at room temperature in a desiccator for a short period of time or at −20° C. for a long period of time.
All compounds were serially 3-fold diluted in DMSO from 10 μM to the 10th concentration.
A 1000× positive control (10 mM, HA130) and a 1000× negative control (100% DMSO) were prepared.
The plates were shaken for 5 min.
Preparation of 1× Reaction Buffer:
5× reaction buffer and cold water were mixed well in a volume ratio of 1:4.
Preparation of 20 U/mL Choline Oxidase Stock Solution:
1 tube of choline oxide in a kit was dissolved in 1× reaction buffer. The aliquots were frozen at −20° C.
Preparation of 200 U/mL Horseradish Peroxidase (HRP) Stock Solution:
1 tube of HRP in a kit was dissolved in 1 mL of 1× reaction buffer. The aliquots were frozen at −20° C.
Preparation of 20 mM Amplex® Red Reagent (for Detection) Stock Solution
Amplex Red reagent and DMSO were equilibrated at room temperature. 1 tube of Amplex Red reagent in a kit was dissolved in 200 μL of DMSO.
a) 2×ATX ([…]), 2×HRP ([…]), 2× choline oxidase (0.2 U/mL) were added to 1× reaction buffer.
b) 20 μL of the reaction mixture was added to the plate (PE, 6007270) (refer to step a).
c) 40 nL of diluent was added to the plate using Echo (refer to “Preparation”).
d) 2×LPC (16:0) (60 mM) and 2× Amplex® Red ([…]) were prepared using 1× reaction buffer.
e) 20 μL of the mixture was added to the plate (refer to step d).
f) The plate was shaken for 30 s and allowed to stand at room temperature for 30 min.
g) The plate was examined using Envision, and the procedure was as follows: Excitation at 530 nm; and Emission at 590 nm.
Formula for Calculating % Inhibition (Percent Inhibition Rate) as Follows:
FLU: Fluorescence (fluorescence reading)
FLUpositive: Average fluorescence value in positive control wells (10 μM HA130) in the plate.
FLUvehicle: Average fluorescence value in negative control wells (0.1% DMSO) in the plate.
Calculation of IC50 and Dose-Response Curve:
IC50 of the compounds was calculated via a non-linear regression line (dose-variable slope) fitted using % inhibition and log of compound concentration. The software used was Graphpad 5.0. Y=Bottom+(Top−Bottom)/(1+10^((Log IC50−X)×Hill Slope))
X: log of inhibitor concentration

LPA18:2 in mouse plasma = assay: Inhibition of LPA in mouse plasma (plasma LPA18:2 assay, LC-MS/MS); assay type: biochemical, CD1 mice; conditions: fresh CD1 mouse plasma, LPA18:2, 37° C. for 120 min
Procedure: Effect Example 2. Inhibition of LPA in Mouse Plasma by Compounds
20 mM stock solutions of the compounds were prepared with DMSO and then diluted to 1 mM, which was subjected to a serial 3-fold dilution to yield 10 working solutions.
Collection of Fresh Mouse Plasma:
CD1 mice were euthanized by CO2 inhalation. Approximately 1 mL of whole blood was taken by cardiac puncture, with EDTA-K2 for anticoagulation. The blood was centrifuged at 3220 g for 10 min at 4° C. for plasma collection.
Reactions were performed in a 96-well plate, and the samples were tested in duplicate. 1 μL of each working solution was added to 100 μL of plasma, with the final concentrations of […]. 1 μL of DMSO was added to plasma to serve as blank. The samples were incubated in a water bath at 37° C. for 120 min, and 600 μL of 10 μM tolbutamide in methanol was added to terminate the reaction. Tolbutamide also served as an internal standard. After 5 min of vortex mixing, the samples were centrifuged at 3220 g for 45 min at 4° C. to precipitate the protein. 100 μL of the supernatant was transferred to a new plate, diluted with water based on LC-MS response and peak shapes, mixed well and analyzed by LC-MS/MS.
LPA18:2 was quantified using peak area ratio (LPA18:2/internal standard), requiring no standard curve. For test compounds of different concentrations, LPA data was represented by a percentage decrease of LPA: 100-[((LPA peak area ratio of compound)/(LPA peak area ratio of control))×100]. IC50 was calculated using Graphpad Prism 6.0 software.

Sequence of CYP3A4 (P08684 whole entry): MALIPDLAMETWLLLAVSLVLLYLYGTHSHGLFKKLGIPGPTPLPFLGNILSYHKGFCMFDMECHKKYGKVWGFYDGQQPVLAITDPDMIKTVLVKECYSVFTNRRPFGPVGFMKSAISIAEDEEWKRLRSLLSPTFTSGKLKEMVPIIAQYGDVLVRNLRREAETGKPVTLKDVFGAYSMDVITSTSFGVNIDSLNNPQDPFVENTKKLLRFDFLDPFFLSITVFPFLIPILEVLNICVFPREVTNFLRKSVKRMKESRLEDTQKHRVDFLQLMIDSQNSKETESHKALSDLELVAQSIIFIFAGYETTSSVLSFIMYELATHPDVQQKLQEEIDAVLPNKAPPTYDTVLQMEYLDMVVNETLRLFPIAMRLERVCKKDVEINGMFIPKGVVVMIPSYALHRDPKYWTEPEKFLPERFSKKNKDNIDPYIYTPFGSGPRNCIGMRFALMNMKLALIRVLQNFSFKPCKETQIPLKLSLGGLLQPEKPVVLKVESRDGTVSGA

| Structure (SMILES) | CYP3A4 TDI % @ 10 μM (CYP3A4) | time-dependent inhibition on CYP3A4 (conclusion) (CYP3A4) | IC50 (Autotaxin (ATX)) | IC50 (LPA18:2 in mouse plasma) |
| --- | --- | --- | --- | --- |
| CCN(c1nc(-c2ccc(F)cc2)c(C#N)s1)c1c2nc(N3CCN(CC(=O)N4CC(O)C4)CC3)cc(C)c2nn1CC [Compound S-0124, 2-(ethyl(2-ethyl-5-(4-(2-(3-hydroxyazetidin-1-yl)-2-oxoethyl)piperazin-1-yl)-7-methyl-2H-pyrazolo[4,3-b]pyridin-3-yl)amino)-4-(4-fluorophenyl) thiazole-5-carbonitrile] | 8.74% | no time-dependent inhibition on CYP3A4 | 24 nM | 96 nM |
| CCn1nc2c(C)cc(N3CCN(CC(=O)N4CC(O)C4)CC3)nc2c1N(C)c1nc(-c2ccc(F)cc2)c(C#N)s1 [Compound S-0095, 2-((2-ethyl-5-(4-(2-(3-hydroxyazetidin-1-yl)-2-oxoethyl)piperazine-1-yl)-7-methyl-2H-pyrazolo[4,3-b]pyridin-3-yl)(methyl)amino)-4-(4-fluorophenyl)thiazole-5-carbonitrile] | 2.91% | no time-dependent inhibition on CYP3A4 | 119 nM | 309 nM |
| CCN(c1nc(-c2ccc(F)cc2)c(C#N)s1)c1c2cc(N3CCN(CC(=O)N4CC(O)C4)CC3C(F)(F)F)cc(F)c2nn1CC (single isomer, unassigned) [Compound S-0134A, 2-(ethyl(2-ethyl-7-fluoro-5-(4-(2-(3-hydroxyazetidin-1-yl)-2-oxoethyl)-2-(trifluoromethyl)piperazin-1-yl)-2H-indazol-3-yl)amino)-4-(4-fluorophenyl)thiazole-5-carbonitrile] | – | – | 20 nM | 116 nM |
| CCn1nc2c(F)cc(N3CCN(CC(=O)N4CC(O)C4)CC3C(F)(F)F)cc2c1N(C)c1nc(-c2ccc(F)cc2)c(C#N)s1 (single isomer, unassigned) [Compound S-0131A, 2-((2-ethyl-7-fluoro-5-(4-(2-(3-hydroxyazetidin-1-yl)-2-oxoethyl)-2-(trifluoromethyl)piperazin-1-yl)-2H-indazol-3-yl)(methyl)amino)-4-(4-fluorophenyl)thiazole-5-carbonitrile] | – | – | 47 nM | 236 nM |
| CCN(c1nc(-c2ccc(F)cc2)cs1)c1c2nc(N3CCN(CC(=O)N4CC(O)C4)CC3)cc(C)c2nn1CC [Compound S-0151, 2-(4-(2-ethyl-3-(ethyl(4-(4-fluorophenyl)thiazol-2-yl)amino)-7-methyl-2H-pyrazolo[4,3-b]pyridin-5-yl)piperazin-1-yl)-1-(3-hydroxyazetidin-1-yl) ethanone] | – | – | – | 1400 nM |
| CCN(c1nc(-c2ccc(F)cc2)c(C#N)s1)c1c2cc(N3CCN(CC(=O)N4CC(O)C4)[C@H](C(F)(F)F)C3)cc(F)c2nn1CC [Compound S-0135A, (S)-2-(ethyl(2-ethyl-7-fluoro-5-(4-(2-(3-hydroxyazetidin-1-yl)-2-oxoethyl)-3-(trifluoromethyl)piperazin-1-yl)-2H-indazol-3-yl)amino)-4-(4-fluorophenyl)thiazole-5-carbonitrile] | – | – | 132 nM | 442 nM |
| CCc1nc2ncc(N3CCN(CC(=O)N4CC(O)C4)CC3)cn2c1N(CC)c1nc(-c2ccc(F)cc2)c(C#N)s1 [Compound S-0058, 2-(ethyl(2-ethyl-6-(4-(2-(3-hydroxyazetidin-1-yl)-2-oxoethyl)piperazin-1-yl)imidazo[1,2-a]pyrimidin-3-yl)amino)-4-(4-fluorophenyl)thiazole-5-carbonitrile] | – | – | 40 nM | 373 nM |
| CCn1nc2c(F)cc(N3CCN(CC(=O)N4CC(O)C4)CC3C(F)(F)F)cc2c1N(C)c1nc(-c2ccc(F)cc2)c(C#N)s1 (single isomer, unassigned) [Compound S-0131B, 2-((2-ethyl-7-fluoro-5-(4-(2-(3-hydroxyazetidin-1-yl)-2-oxoethyl)-2-(trifluoromethyl)piperazin-1-yl)-2H-indazol-3-yl) (methyl)amino)-4-(4-fluorophenyl)thiazole-5-carbonitrile] | – | – | 36 nM | 91 nM |
| CCc1nc2c(C)cc(N3CCN(CC(=O)N4CC(O)C4)CC3)cn2c1N(C)c1nc(-c2ccc(F)cc2)c(C#N)s1 [GLPG1690, reference compound] | 21.57% | – | – | 1060 nM |
| CCn1nc2c(C)cc(N3CCN(CC(=O)N4CC(O)C4)CC3)nc2c1N(CC(F)F)c1nc(-c2ccc(F)cc2)c(C#N)s1 [Compound S-0141, 2-((2,2-difluoroethyl)(2-ethyl-5-(4-(2-(3-hydroxyazetidin-1-yl)-2-oxoethyl)piperazin-1-yl)-7-methyl-2H-pyrazolo[4,3-b]pyridin-3-yl)amino)-4-(4-fluorophenyl)thiazole-5-carbonitrile] | – | – | 43 nM | 153 nM |
| CCn1nc2c(C)cc(N3CCN(CC(=O)N4CC(O)C4)CC3)nc2c1N(CCF)c1nc(-c2ccc(F)cc2)c(C#N)s1 [Compound S-0144, 2-((2-ethyl-5-(4-(2-(3-hydroxyazetidin-1-yl)-2-oxoethyl)piperazin-1-yl)-7-methyl-2H-pyrazolo[4,3-b]pyridin-3-yl)(2-fluoroethyl)amino)-4-(4-fluorophenyl)thiazole-5-carbonitrile] | – | – | 27 nM | 67 nM |
